Test results taken from patent publication US20230295201A1 (Gilead Sciences, Inc., priority 2020, published 2023).

Columns and labels:
Assay type in all cases: cell-based
[1] = tested on: HRV16; test: HRV16 HELA EC50 (cytopathic effect in H1-HeLa cells); settings: 96 h, H1-HeLa cells, 33° C., read-out: HRV16 HELA EC50
How it was run: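 Read-out is luminescent cell viability (CellTiter-Glo) after 96 h of infection at 33 °C, scaled between uninfected and infected-untreated wells. Before infection with titrated virus, compounds went onto H1-HeLa cells as triplicate 3-fold dilution series.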

[2] = tested on: DENV2 replicon; test: DENV-2 Huh-7 Rep EC50 (replicon luminescence); settings: Dengue virus, DENV2, Huh-7, 48 h, Huh-7 replicon cells, 48 hours; read-out: DENV-2 Huh-7 Rep EC50
How it was run: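 EC50 derived from luminescence dose-response, normalised to DMSO-only 0% inhibition wells, after 1.5 h with EnduRen substrate. Compounds were first exposed for 48 h at 37° C to DENV2 replicon Huh-7 cells (5,000/well).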

[3] = tested on: RSV A2; test: RSV NHBE EC50 (RSV A2 antiviral assay in normal human bronchial epithelial cells); settings: human respiratory syncytial virus, NHBE, 96 h, NHBE cells, RSV A2, 4 days; read-out: RSV NHBE EC50
[4] = tested on: RSV strain A2; test: RSV HEp-2 EC50 (infectious cytopathic cell protection assay); settings: human respiratory syncytial virus, HEp-2, 96 h, HEp-2 cells, RSV A2, 4 days; read-out: RSV HEp-2 EC50
How it was run: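 Percent inhibition of RSV-induced cytopathic effect came from remaining cell viability (CellTiter-Glo luminescence) after 4 days at 37° C. Compounds in 3-fold serial dilutions were exposed to an infectious mix of titered A2 virus and HEp-2 cells at 50,000/ml, with 0% and 100% inhibition control standards.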

Compound | EC50 [1] [nM] | EC50 [2] [nM] | EC50 [3] [nM] | EC50 [4] [nM]
CCCCCCOC(=O)[C@H](C)NP(=O)(OC[C@@]1(C#N)O[C@@H](c2ccc3c(N)ncnn23)[C@H](O)[C@@H]1O)Oc1ccccc1 (stereo partly drawn) [Example 192, hexyl ((((2R,3S,4R,5S)-5-(4-aminopyrrolo[2,1-f][1,2,4]triazin-7-yl)-2-cyano-3,4-dihydroxytetrahydrofuran-2-yl)methoxy)(phenoxy)phosphoryl)-L-alaninate] | 342 | 15900 | 21 | 194
C[C@H](NP(=O)(OC[C@@]1(C#N)O[C@@H](c2ccc3c(N)ncnn23)[C@H](O)[C@@H]1O)Oc1cccc2ccccc12)C(=O)OC1CCCCC1 (stereo partly drawn) [Example 203, cyclohexyl ((((2R,3S,4R,5S)-5-(4-aminopyrrolo[2,1-f][1,2,4]triazin-7-yl)-2-cyano-3,4-dihydroxytetrahydrofuran-2-yl)methoxy)(naphthalen-1-yloxy)phosphoryl)-L-alaninate] | 72 | 4460 | 18 | 31
